Results reported in patent US20240002332A1, “Small Molecule Inhibitors of SARS-CoV-2 Infections” (priority 2020, published 2024).

Assay: in vivo
Details: C57BL/6, mouse, po, C57BL/6 mice; for AUC(0-inf): AUCInf; for AUC(0-inf) / AUC(0-t) / Cmax / Tmax: Compound P3 in plasma; for AUC(0-t): AUClast; for half-life: t1/2, Compound P3 in plasma
[1] = 50 mg/kg, PO 50 mg/kg (PO_A), Mean n = 3
[2] = 50 mg/kg, PO 50 mg/kg (PO_A), individual mice
[3] = 100 mg/kg, PO 100 mg/kg (PO_B), Mean n = 3
[4] = 100 mg/kg, PO 100 mg/kg (PO_B), individual mice

## O=C(Nc1ccc([N+](=O)[O-])cc1Cl)c1cc(Cl)ccc1OC(=O)N1CCNCC1 [Compound P3, 4-chloro-2-((2-chloro-4-nitrophenyl)carbamoyl)phenyl piperazine-1-carboxylate]
[1]
  AUC(0-inf): 88700 ng·h/mL
  AUC(0-t): 9730 ng·h/mL
  Cmax: 1460 ng/mL
  half-life: 4.14 h
  Tmax: 2 h
[2]
  AUC(0-t): 6360 ng·h/mL
  Cmax: 1140 ng/mL
  half-life: 4.58 h
[3]
  AUC(0-inf): 38100 ng·h/mL
  AUC(0-t): 26400 ng·h/mL
  Cmax: 3060 ng/mL
  half-life: 15.3 h
  Tmax: 1 h
[4]
  AUC(0-t): 26000 ng·h/mL
  Cmax: 2970 ng/mL
  half-life: 12.4 h
  Tmax: 1 h
